From ChEMBL document CHEMBL4002566, “S-substituted 3,5-dinitrophenyl 1,3,4-oxadiazole-2-thiols and tetrazole-5-thiols as highly efficient antitubercular agents” (Eur J Med Chem, 2017)

Key:
Format in all cases: functional
Mycobacterium avium [1] = assay: Antimycobacterial activity against Mycobacterium avium CNCTC My 330/88 after 21 days by micromethod; conditions: CNCTC My 330/88, 504 h
Mycobacterium kansasii [2] = assay: Antimycobacterial activity against Mycobacterium kansasii 6509/96 clinical isolate after 21 days by micromethod; conditions: 6509/96, 504 h
Mycobacterium kansasii [3] = assay: Antimycobacterial activity against Mycobacterium kansasii CNCTC My 235/80 after 14 days by micromethod; conditions: CNCTC My 235/80, 336 h
Mycobacterium kansasii [4] = assay: Antimycobacterial activity against Mycobacterium kansasii 6509/96 clinical isolate after 14 days by micromethod; conditions: 6509/96, 336 h
Mycobacterium kansasii [5] = assay: Antimycobacterial activity against Mycobacterium kansasii 6509/96 clinical isolate after 7 days by micromethod; conditions: 6509/96, 168 h
Mycobacterium kansasii [6] = assay: Antimycobacterial activity against Mycobacterium kansasii CNCTC My 235/80 after 21 days by micromethod; conditions: CNCTC My 235/80, 504 h
Mycobacterium avium [7] = assay: Antimycobacterial activity against Mycobacterium avium CNCTC My 330/88 after 14 days by micromethod; conditions: CNCTC My 330/88, 336 h
[8] = system: Mycobacterium tuberculosis; assay: Antimycobacterial activity against Mycobacterium tuberculosis CNCTC My 331/88 after 21 days by micromethod; conditions: CNCTC My 331/88, 504 h
[9] = system: Mycobacterium tuberculosis; assay: Antimycobacterial activity against Mycobacterium tuberculosis CNCTC My 331/88 after 14 days by micromethod; conditions: CNCTC My 331/88, 336 h
Mycobacterium kansasii [10] = assay: Antimycobacterial activity against Mycobacterium kansasii CNCTC My 235/80 after 7 days by micromethod; conditions: CNCTC My 235/80, 168 h

Measured: MIC

CC(=O)Nc1cc(-c2nnc(SCc3ccc(Cl)cc3)o2)cc([N+](=O)[O-])c1
> 1000 µM: Mycobacterium avium [1] | Mycobacterium kansasii [2] | Mycobacterium kansasii [3] | Mycobacterium kansasii [4] | Mycobacterium kansasii [5] | Mycobacterium kansasii [6] | Mycobacterium avium [7] | Mycobacterium kansasii [10]
250 µM: [8] | [9]

COc1ccc(CSc2nnc(-c3cc(NC(C)=O)cc([N+](=O)[O-])c3)o2)cc1
> 500 µM: Mycobacterium avium [1] | Mycobacterium avium [7]
> 1000 µM: Mycobacterium kansasii [2] | Mycobacterium kansasii [3] | Mycobacterium kansasii [4] | Mycobacterium kansasii [5] | Mycobacterium kansasii [6] | [8] | [9] | Mycobacterium kansasii [10]

O=[N+]([O-])c1cc(-c2nnc(SCc3ccccc3)o2)cc([N+](=O)[O-])c1
0.5 µM: Mycobacterium kansasii [2] | Mycobacterium kansasii [3] | Mycobacterium kansasii [4] | Mycobacterium kansasii [6] | [8] | [9]
4 µM: Mycobacterium avium [1] | Mycobacterium avium [7]
0.25 µM: Mycobacterium kansasii [5] | Mycobacterium kansasii [10]

Nc1cc(-c2nnc(SCc3ccc(Br)cc3)o2)cc([N+](=O)[O-])c1
125 µM: Mycobacterium avium [1] | Mycobacterium kansasii [2] | Mycobacterium kansasii [3] | Mycobacterium kansasii [4] | Mycobacterium kansasii [5] | Mycobacterium kansasii [6] | Mycobacterium avium [7] | [8] | [9] | Mycobacterium kansasii [10]

COc1ccc(CSc2nnc(-c3cc([N+](=O)[O-])cc(C(F)(F)F)c3)o2)cc1
2 µM: Mycobacterium kansasii [2] | Mycobacterium kansasii [4] | Mycobacterium kansasii [10]
> 250 µM: Mycobacterium avium [1] | Mycobacterium avium [7]
0.5 µM: [8] | [9]
1 µM: Mycobacterium kansasii [5]
4 µM: Mycobacterium kansasii [3] | Mycobacterium kansasii [6]

CC(=O)Nc1cc(-c2nnc(SCc3ccc([N+](=O)[O-])cc3)o2)cc([N+](=O)[O-])c1
> 500 µM: Mycobacterium avium [1] | Mycobacterium kansasii [2] | Mycobacterium kansasii [3] | Mycobacterium kansasii [4] | Mycobacterium kansasii [5] | Mycobacterium kansasii [6] | Mycobacterium avium [7] | [8] | [9] | Mycobacterium kansasii [10]

Nc1cc(-c2nnc(SCc3ccc([N+](=O)[O-])cc3)o2)cc([N+](=O)[O-])c1
125 µM: Mycobacterium avium [1] | Mycobacterium kansasii [2] | Mycobacterium kansasii [3] | Mycobacterium kansasii [4] | Mycobacterium kansasii [5] | Mycobacterium kansasii [6] | Mycobacterium avium [7] | [8] | [9] | Mycobacterium kansasii [10]

O=[N+]([O-])c1cc(O)cc(-c2nnc(SCc3ccc(Cl)c(Cl)c3)o2)c1
> 250 µM: Mycobacterium avium [1] | Mycobacterium kansasii [2] | Mycobacterium kansasii [3] | Mycobacterium kansasii [4] | Mycobacterium kansasii [5] | Mycobacterium kansasii [6] | Mycobacterium avium [7] | [8] | [9] | Mycobacterium kansasii [10]

CC(=O)Oc1cc(-c2nnc(SCc3ccc(Cl)c(Cl)c3)o2)cc([N+](=O)[O-])c1
1000 µM: Mycobacterium avium [1] | Mycobacterium kansasii [2] | Mycobacterium kansasii [3] | Mycobacterium kansasii [4] | Mycobacterium kansasii [5] | Mycobacterium kansasii [6] | Mycobacterium avium [7] | [8] | [9] | Mycobacterium kansasii [10]

Nc1cc(-c2nnc(SCc3ccccc3)o2)cc([N+](=O)[O-])c1
250 µM: Mycobacterium avium [1] | Mycobacterium kansasii [2] | Mycobacterium kansasii [3] | Mycobacterium kansasii [4] | Mycobacterium kansasii [5] | Mycobacterium kansasii [6] | Mycobacterium avium [7] | [8] | [9] | Mycobacterium kansasii [10]

O=[N+]([O-])c1cc(-c2nnc(S)o2)cc([N+](=O)[O-])c1
62 µM: Mycobacterium avium [7] | [8] | [9]
125 µM: Mycobacterium avium [1] | Mycobacterium kansasii [2] | Mycobacterium kansasii [3] | Mycobacterium kansasii [4] | Mycobacterium kansasii [5] | Mycobacterium kansasii [6] | Mycobacterium kansasii [10]

O=[N+]([O-])c1cc(-c2nnc(SC3CCCCC3)o2)cc([N+](=O)[O-])c1
16 µM: Mycobacterium avium [7]
0.03 µM: Mycobacterium kansasii [2] | Mycobacterium kansasii [3] | Mycobacterium kansasii [4] | Mycobacterium kansasii [5] | Mycobacterium kansasii [6] | [8] | [9] | Mycobacterium kansasii [10]
32 µM: Mycobacterium avium [1]

CC(=O)Nc1cc(-c2nnc(SCc3ccc(Br)cc3)o2)cc([N+](=O)[O-])c1
> 500 µM: Mycobacterium avium [1] | Mycobacterium kansasii [2] | Mycobacterium kansasii [3] | Mycobacterium kansasii [4] | Mycobacterium kansasii [5] | Mycobacterium kansasii [6] | Mycobacterium avium [7] | [8] | [9] | Mycobacterium kansasii [10]

NNC(=O)c1ccncc1 [ISONIAZID]
0.5 µM: [9]
8 µM: Mycobacterium kansasii [2]
> 250 µM: Mycobacterium avium [1] | Mycobacterium kansasii [3] | Mycobacterium avium [7] | Mycobacterium kansasii [10]
4 µM: Mycobacterium kansasii [4] | Mycobacterium kansasii [5]
1 µM: [8]

O=[N+]([O-])c1cc(-c2nnc(SCc3ccc(Cl)cc3)o2)cc(C(F)(F)F)c1
0.5 µM: [8] | [9]
> 250 µM: Mycobacterium avium [1] | Mycobacterium avium [7]
1 µM: Mycobacterium kansasii [2] | Mycobacterium kansasii [3] | Mycobacterium kansasii [4] | Mycobacterium kansasii [5] | Mycobacterium kansasii [6] | Mycobacterium kansasii [10]

CCCCCSc1nnc(-c2cc([N+](=O)[O-])cc([N+](=O)[O-])c2)o1
0.03 µM: Mycobacterium kansasii [2] | Mycobacterium kansasii [3] | Mycobacterium kansasii [4] | Mycobacterium kansasii [5] | Mycobacterium kansasii [6] | [8] | [9] | Mycobacterium kansasii [10]
16 µM: Mycobacterium avium [7]
32 µM: Mycobacterium avium [1]

CCCSc1nnc(-c2cc([N+](=O)[O-])cc([N+](=O)[O-])c2)o1
1 µM: Mycobacterium kansasii [5] | Mycobacterium kansasii [10]
0.5 µM: [8]
4 µM: Mycobacterium kansasii [2]
0.25 µM: [9]
8 µM: Mycobacterium avium [1] | Mycobacterium avium [7]
2 µM: Mycobacterium kansasii [3] | Mycobacterium kansasii [4] | Mycobacterium kansasii [6]

O=[N+]([O-])c1cc(-c2nnc(SCc3ccc(Cl)c(Cl)c3)o2)cc(C(F)(F)F)c1
1 µM: Mycobacterium kansasii [2] | Mycobacterium kansasii [3] | Mycobacterium kansasii [4] | Mycobacterium kansasii [6]
0.5 µM: Mycobacterium kansasii [5] | [8] | [9] | Mycobacterium kansasii [10]
> 250 µM: Mycobacterium avium [1] | Mycobacterium avium [7]

Nc1cc(-c2nnc(SCc3ccc(Cl)cc3)o2)cc([N+](=O)[O-])c1
250 µM: Mycobacterium avium [1] | Mycobacterium kansasii [2] | Mycobacterium kansasii [3] | Mycobacterium kansasii [4] | Mycobacterium kansasii [5] | Mycobacterium kansasii [6] | Mycobacterium avium [7] | [8] | [9] | Mycobacterium kansasii [10]

CC(=O)Nc1cc(-c2nnc(SCc3ccccc3)o2)cc([N+](=O)[O-])c1
> 1000 µM: Mycobacterium avium [1] | Mycobacterium kansasii [2] | Mycobacterium kansasii [3] | Mycobacterium kansasii [4] | Mycobacterium kansasii [5] | Mycobacterium kansasii [6] | Mycobacterium avium [7] | [8] | [9] | Mycobacterium kansasii [10]

O=[N+]([O-])c1cc(-n2nnnc2SCc2ccccc2)cc([N+](=O)[O-])c1
4 µM: Mycobacterium kansasii [6] | Mycobacterium avium [7]
2 µM: Mycobacterium kansasii [2] | Mycobacterium kansasii [3] | Mycobacterium kansasii [4]
0.5 µM: [9]
8 µM: Mycobacterium avium [1]
1 µM: Mycobacterium kansasii [5] | [8] | Mycobacterium kansasii [10]

CSc1nnc(-c2cc([N+](=O)[O-])cc([N+](=O)[O-])c2)o1
32 µM: Mycobacterium kansasii [6]
16 µM: Mycobacterium avium [1] | Mycobacterium kansasii [2] | Mycobacterium kansasii [3] | Mycobacterium avium [7]
4 µM: [9]
8 µM: Mycobacterium kansasii [4] | Mycobacterium kansasii [5] | [8] | Mycobacterium kansasii [10]

O=[N+]([O-])c1cc(-c2nnc(SCc3ccccc3)o2)cc(C(F)(F)F)c1
4 µM: Mycobacterium kansasii [2] | Mycobacterium kansasii [3] | Mycobacterium kansasii [4] | Mycobacterium kansasii [6]
1 µM: [8] | [9]
2 µM: Mycobacterium kansasii [5] | Mycobacterium kansasii [10]
> 250 µM: Mycobacterium avium [1] | Mycobacterium avium [7]
